# Measured values reported in patent publication US9233977B2, “Leucine-rich repeat kinase enzyme activity” (Merck Sharp & Dohme Corp., priority 2010, dated 2016).
# pIC50: −log10 of the molar value.
# Biological target: T1, LRRK2 G2019S mutant kinase (Homo sapiens, UniProt Q5S007, G2019S)
# T1 construct: GST; purchased Invitrogen PV4882
# Experiment: LRRK2 G2019S LanthaScreen TR-FRET kinase assay
# Assay type: biochemical
# Settings: LRRK2 G2019S GST-tagged protein, 75 nM Fluorescein-ERM (LRRKtide), 100 μM ATP, 1 hour at room temperature; read-out: IC50 (potency)
# Method: The final solvent concentration in the assay was 1% DMSO. […] Generation of raw data and workup of data to derive the IC50 (potency) and maximal inhibition at concentrations tested were performed using Merck's Assay Data Analyzer (ADA) software.
# The IC50 (potency) was evaluated for the example compounds presented above.
# T1 sequence (Q5S007 whole entry G2019S): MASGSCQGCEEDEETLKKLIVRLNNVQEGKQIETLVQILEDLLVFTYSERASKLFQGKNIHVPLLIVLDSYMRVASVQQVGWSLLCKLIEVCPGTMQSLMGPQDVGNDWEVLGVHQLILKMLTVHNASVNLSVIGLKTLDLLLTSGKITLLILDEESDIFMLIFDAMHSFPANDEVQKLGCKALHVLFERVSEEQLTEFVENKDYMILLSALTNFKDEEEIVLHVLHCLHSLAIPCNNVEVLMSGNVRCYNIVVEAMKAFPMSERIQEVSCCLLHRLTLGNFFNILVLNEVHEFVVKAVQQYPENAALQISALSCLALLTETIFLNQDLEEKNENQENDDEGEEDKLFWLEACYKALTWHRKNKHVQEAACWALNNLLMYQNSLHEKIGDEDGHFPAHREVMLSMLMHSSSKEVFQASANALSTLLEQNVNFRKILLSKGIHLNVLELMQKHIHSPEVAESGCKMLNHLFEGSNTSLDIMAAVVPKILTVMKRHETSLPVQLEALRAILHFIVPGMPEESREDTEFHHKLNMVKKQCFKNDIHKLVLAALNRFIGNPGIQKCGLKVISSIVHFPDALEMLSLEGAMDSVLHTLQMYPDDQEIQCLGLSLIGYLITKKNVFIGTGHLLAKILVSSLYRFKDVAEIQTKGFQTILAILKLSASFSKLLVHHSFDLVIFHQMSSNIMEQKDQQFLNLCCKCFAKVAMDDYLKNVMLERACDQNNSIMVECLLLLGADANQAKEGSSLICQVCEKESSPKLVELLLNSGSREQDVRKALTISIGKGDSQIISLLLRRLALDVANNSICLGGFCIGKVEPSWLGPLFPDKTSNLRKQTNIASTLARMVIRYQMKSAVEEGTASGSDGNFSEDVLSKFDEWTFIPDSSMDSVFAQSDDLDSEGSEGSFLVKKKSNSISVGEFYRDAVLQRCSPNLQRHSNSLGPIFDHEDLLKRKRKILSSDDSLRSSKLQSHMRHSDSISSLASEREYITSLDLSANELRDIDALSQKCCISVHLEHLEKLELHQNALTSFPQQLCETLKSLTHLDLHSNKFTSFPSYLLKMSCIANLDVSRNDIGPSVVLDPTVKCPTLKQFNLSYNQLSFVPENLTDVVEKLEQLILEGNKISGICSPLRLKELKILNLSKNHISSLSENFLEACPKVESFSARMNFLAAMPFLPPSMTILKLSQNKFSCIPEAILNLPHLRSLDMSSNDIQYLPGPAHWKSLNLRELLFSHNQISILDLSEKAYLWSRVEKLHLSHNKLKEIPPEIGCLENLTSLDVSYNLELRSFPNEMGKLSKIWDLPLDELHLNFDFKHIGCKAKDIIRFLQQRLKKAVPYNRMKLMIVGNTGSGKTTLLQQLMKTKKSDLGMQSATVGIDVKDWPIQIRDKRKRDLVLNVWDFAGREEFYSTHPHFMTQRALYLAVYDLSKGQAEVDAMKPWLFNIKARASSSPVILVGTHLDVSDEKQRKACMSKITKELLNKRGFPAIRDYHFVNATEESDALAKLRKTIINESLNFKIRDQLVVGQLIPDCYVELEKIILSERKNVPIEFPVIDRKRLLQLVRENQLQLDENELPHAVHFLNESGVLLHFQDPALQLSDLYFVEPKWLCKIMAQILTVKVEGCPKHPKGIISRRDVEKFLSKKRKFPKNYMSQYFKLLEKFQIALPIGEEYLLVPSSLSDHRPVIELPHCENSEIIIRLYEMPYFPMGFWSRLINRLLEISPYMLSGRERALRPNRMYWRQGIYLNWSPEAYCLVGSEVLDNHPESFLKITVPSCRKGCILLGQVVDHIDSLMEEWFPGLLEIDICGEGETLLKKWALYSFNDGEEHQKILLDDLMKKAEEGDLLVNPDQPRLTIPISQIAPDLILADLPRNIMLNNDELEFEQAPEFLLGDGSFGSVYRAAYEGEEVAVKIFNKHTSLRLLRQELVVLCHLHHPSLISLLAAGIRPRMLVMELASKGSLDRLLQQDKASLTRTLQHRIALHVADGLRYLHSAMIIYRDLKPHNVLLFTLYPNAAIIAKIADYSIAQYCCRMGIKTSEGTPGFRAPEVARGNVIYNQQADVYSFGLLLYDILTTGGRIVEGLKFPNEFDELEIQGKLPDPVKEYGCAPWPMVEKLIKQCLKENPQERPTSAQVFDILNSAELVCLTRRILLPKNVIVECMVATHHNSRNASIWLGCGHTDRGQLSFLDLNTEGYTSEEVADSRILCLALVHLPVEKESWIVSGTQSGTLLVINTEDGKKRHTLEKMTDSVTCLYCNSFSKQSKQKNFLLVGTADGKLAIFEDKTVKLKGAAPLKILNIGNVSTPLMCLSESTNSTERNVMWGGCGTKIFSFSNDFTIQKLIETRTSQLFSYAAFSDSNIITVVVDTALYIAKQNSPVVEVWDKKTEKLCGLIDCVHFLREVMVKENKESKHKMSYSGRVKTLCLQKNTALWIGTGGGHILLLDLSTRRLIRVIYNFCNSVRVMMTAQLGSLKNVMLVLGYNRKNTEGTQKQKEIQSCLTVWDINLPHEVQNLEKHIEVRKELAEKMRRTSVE
row,SMILES,pIC50
1,"CNc1sc(-c2cc[nH]n2)c2c1C(=O)NCC2C (centres unmarked) [Example 96, 3-(methylamino)-7-methyl-1-(1H-pyrazol-3-yl)-6,7-dihydrothieno[3,4-c]pyridin-4(5H)-one]",6.43
2,"C[C@H]1Cc2c(-c3cc[nH]n3)sc(NC3CCCC3)c2C(=O)N1 [Example 97, (6S)-3-(cyclopentylamino)-6-methyl-1-(1H-pyrazol-3-yl)-6,7-dihydrothieno[3,4-c]pyridin-4(5H)-one]",6.49
3,"C[C@@H]1Cc2c(-c3cc[nH]n3)sc(NC3CCCC3)c2C(=O)N1 [Example 98, (6R)-3-(cyclopentylamino)-6-methyl-1-(1H-pyrazol-3-yl)-6,7-dihydrothieno[3,4-c]pyridin-4(5H)-one]",6.48
4,"CNc1sc(-c2cc[nH]n2)c2c1C(=O)N[C@@H](C)C2 [Example 99, (6S)-3-(methylamino)-6-methyl-1-(1H-pyrazol-3-yl)-6,7-dihydrothieno[3,4-c]pyridin-4(5H)-one]",5.92
5,"CNc1sc(-c2cc[nH]n2)c2c1C(=O)N[C@H](C)C2 [Example 100, (6R)-3-(methylamino)-6-methyl-1-(1H-pyrazol-3-yl)-6,7-dihydrothieno[3,4-c]pyridin-4(5H)-one]",5.51
